The results in this text go back to patent US20240174637A1, “DEGRADERS OF GRK2 AND USES THEREOF” (Sonata Therapeutics, Inc., priority 2021, published 2024).

Assay [1] concerns the target T1, GRK2 (Homo sapiens, UniProt P25098).
T1 sequence (P25098 1-689): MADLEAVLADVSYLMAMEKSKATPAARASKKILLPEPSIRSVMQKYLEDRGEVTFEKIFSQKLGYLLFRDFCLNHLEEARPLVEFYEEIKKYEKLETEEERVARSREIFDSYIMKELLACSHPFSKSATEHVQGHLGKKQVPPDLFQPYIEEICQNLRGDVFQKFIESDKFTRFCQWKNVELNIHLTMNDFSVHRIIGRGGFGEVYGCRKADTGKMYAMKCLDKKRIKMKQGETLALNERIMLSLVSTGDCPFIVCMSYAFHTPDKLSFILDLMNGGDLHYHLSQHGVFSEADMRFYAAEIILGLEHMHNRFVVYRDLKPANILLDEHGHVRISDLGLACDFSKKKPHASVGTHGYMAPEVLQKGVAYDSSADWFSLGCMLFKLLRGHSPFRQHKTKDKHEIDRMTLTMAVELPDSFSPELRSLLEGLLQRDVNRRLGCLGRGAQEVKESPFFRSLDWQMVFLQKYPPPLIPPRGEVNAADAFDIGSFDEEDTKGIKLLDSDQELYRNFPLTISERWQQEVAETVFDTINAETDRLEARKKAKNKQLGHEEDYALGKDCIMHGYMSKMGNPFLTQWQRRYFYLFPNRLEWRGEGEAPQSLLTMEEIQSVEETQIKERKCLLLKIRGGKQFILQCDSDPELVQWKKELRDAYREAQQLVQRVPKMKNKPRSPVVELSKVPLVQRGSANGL
Nature of the assay: GRK2 Inhibition Assay (TR-FRET, Example 1). In kind it is biochemical. As to the method: Assay: GRK2 enzyme (1 nM final concentration) was diluted in 25 mM HEPES, 10 mM MgCl2, 2 mM DTT, 0.01% Tween-20, and 1 mM EGTA. Then the GRK2 mixture was added into ProxiPlate-384 white plate and pre-incubated for 30 min with test compounds at room temperature. ATP (7 μM final concentration) and Ulight TopoIIα (50 nM final concentration) were added into the assay plate to initiate the reaction and the mixture was incubated at room temperature for 90 min. Then, Eu anti-TopoIIα (0.12 nM final concentration), BSA (0.01% final concentration), and EDTA (11 mM final concentration) in LANCE assay buffer were added into each well. After 60 min incubation time at room temperature, TR-FRET signal was measured by EnVision plate reader.
In general terms: Time-resolved FRET reads energy transfer from a long-lived donor to a nearby acceptor.

Assay [2] deals with T1, GRK2. The assay can be described thus: GRK2 Degradation Assay and Western Blot in PAXF1657 cells. It is filed as cell-based. Further details: endogenous in cells; host or cells: PAXF1657. To be noted: for inhibition at 0.3 µM: Conc 0.3 uM; for inhibition at 0.3 µM / inhibition at 1 µM / inhibition at 3 µM: read-out: Degradation Assay - 3 point: Degradation (%); for inhibition at 1 µM: Conc 1 uM; for inhibition at 3 µM: Conc 3 uM; for DC50: PAXF1657, 24 h, read-out: Degradation Assay - Full Dose Response: IC50 (uM) [cell line: PAXF1657, time point: 24 h]. The method, boiled down: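 PAXF1657 cells grown to 70% confluency, then treated with compounds at 0–10 μM for 6 to 24 h at 37 °C. Lysates in PBS with 1% NP40 run on SDS-PAGE. GRK2 protein detected by western blot with β-actin as loading reference, using ECL chemiluminescence.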
(In western blotting, separated proteins are transferred to a membrane and probed.)

Setting [3] is: TR-FRET, 7 μM ATP, read-out: Enzymatic GRK2 Assay: IC50 (nM) (Example 1).
[4] abbreviates: Table 4, Example 1 assay, read-out: Enzymatic GRK2 IC50: Av IC50 GRK2.

Each structure is given as a SMILES string. Counter-ions that a name gives are not always drawn. Like-named read-outs stand apart in the source and are kept apart here.

What is called IC50 is the concentration that inhibits the measured activity by half.

As for `Cc1ncsc1-c1ccc(CNC(=O)[C@@H]2C[C@@H](O)CN2C(=O)C(NC(=O)CCCCc2cn(CCCCCCOc3cccc(CNC(=O)c4cccc(NCc5nnc(-c6ccncn6)n5C)c4)c3)nn2)C(C)(C)C)cc1` (stereo partly drawn) [Compound D84], the IC50 in assay [1] (setting [3]) was below 100 nM.
For the compound `Cc1ncsc1-c1ccc(CNC(=O)[C@@H]2C[C@@H](O)CN2C(=O)[C@@H](NC(=O)CCCCCOCCOCCOCCCCCCOc2ccc(F)c(CNC(=O)c3cccc(NCc4nnc(-c5ccncn5)n4C)c3)c2)C(C)(C)C)cc1` [Compound D88, (2S,4R)-1-((S)-2-(tert-butyl)-22-(4-fluoro-3-((3-(((4-methyl-5-(pyrimidin-4-yl)-4H-1,2,4-triazol-3-yl)methyl)amino)benzamido)methyl)phenoxy)-4-oxo-10,13,16-trioxa-3-azadocosan-1-oyl)-4-hydroxy-N-(4-(4-methylthiazol-5-yl)benzyl)pyrrolidine-2-carboxamide], the IC50 in assay [1] (setting [3]) lay in the range of 100 to 1000 nM.
Still for that read-out and setting: the same measure for `Cc1ncsc1-c1ccc(CNC(=O)[C@@H]2C[C@H](O)CN2C(=O)[C@@H](NC(=O)CCCCCOCCOCCOCCCCCCOc2cccc(CNC(=O)c3cccc(NCc4nnc(-c5ccncn5)n4C)c3)c2)C(C)(C)C)cc1` [Compound D89]: below 100 nM.
For the compound `C[C@H](NC(=O)c1cccc(NCc2nnc(-c3ccncn3)n2C)c1)c1ccc(OCCCCN2CCN(c3ccc4c(c3)CN(C3CCC(=O)NC3=O)C4=O)CC2)cc1` (stereo partly drawn) [Compound D117, N-((1S)-1-(4-(4-(4-(2-(2,6-dioxopiperidin-3-yl)-1-oxoisoindolin-5-yl)piperazin-1-yl)butoxy)phenyl)ethyl)-3-((4-methyl-5-(pyrimidin-4-yl)-4H-1,2,4-triazol-3-yl)methylamino)benzamide hydrochloride], in assay [1] (setting [4]), the IC50 is above 1000 nM. Moreover, in assay [2], the inhibition at 0.3 µM was 12.3%, the inhibition at 1 µM was -20.5% and the inhibition at 3 µM is -4.97%.
The matching figures for `C[C@H](NC(=O)c1cccc(NCc2nnc(-c3ccncn3)n2C)c1)c1ccc(OCCCN2CCN(c3ccc4c(c3)CN(C3CCC(=O)NC3=O)C4=O)CC2)cc1` (stereo partly drawn) [Compound D118, N-((1S)-1-(4-(3-(4-(2-(2,6-dioxopiperidin-3-yl)-1-oxoisoindolin-5-yl)piperazin-1-yl)propoxy)phenyl)ethyl)-3-((4-methyl-5-(pyrimidin-4-yl)-4H-1,2,4-triazol-3-yl)methylamino)benzamide hydrochloride]: above 1000 nM, -13.1%, 3.23% and 5.18%.
On to `C[C@@H](NC(=O)c1cccc(NCc2nnc(-c3ccncn3)n2C)c1)c1cccc(OCCCCCCOCCN2CCN(c3cc4c(cc3F)C(=O)N(C3CCC(=O)NC3=O)C4=O)CC2)c1` (stereo partly drawn) [Compound D134, N-((1R)-1-(3-(6-(2-(4-(2-(2,6-dioxopiperidin-3-yl)-6-fluoro-1,3-dioxoisoindolin-5-yl)piperazin-1-yl)ethoxy)hexyloxy)phenyl)ethyl)-3-((4-methyl-5-(pyrimidin-4-yl)-4H-1,2,4-triazol-3-yl)methylamino)benzamide], for which the IC50 in assay [1] (setting [4]) turned out to be 29.9 nM. Besides, in assay [2], the inhibition at 0.3 µM worked out at 64.1%, the inhibition at 1 µM was determined as 82.6%, the inhibition at 3 µM came out at 86.7% and the DC50 was 0.29 µM.
Regarding `C[C@@H](NC(=O)c1cccc(NCc2nnc(-c3ccncn3)n2C)c1)c1cccc(OCCCCCCOCCOCCN2CCN(c3ccc4c(c3)CN(C3CCC(=O)NC3=O)C4=O)CC2)c1` (stereo partly drawn) [Compound D135, N-((1R)-1-(3-(6-(2-(2-(4-(2-(2,6-dioxopiperidin-3-yl)-1-oxoisoindolin-5-yl)piperazin-1-yl)ethoxy)ethoxy)hexyloxy)phenyl)ethyl)-3-((4-methyl-5-(pyrimidin-4-yl)-4H-1,2,4-triazol-3-yl)methylamino)benzamide], in assay [1] (setting [4]), the IC50 is 23.7 nM. For the same compound, in assay [2], the inhibition at 0.3 µM is 82.2%, the inhibition at 1 µM stood at 84.2%, the inhibition at 3 µM was 84.3% and the DC50 worked out at 0.06 µM.
